How the values were obtained:
[1] = molecular target: Voltage-gated inwardly rectifying potassium channel KCNH2 (Homo sapiens, UniProt Q12809); assay type: functional
Acetylcholinesterase = Acetylcholinesterase (Homo sapiens, UniProt P22303); assay type: functional
[2] = molecular target: T1, Alpha-2A adrenergic receptor (Homo sapiens, UniProt P08913)
T1 sequence (P08913 whole entry): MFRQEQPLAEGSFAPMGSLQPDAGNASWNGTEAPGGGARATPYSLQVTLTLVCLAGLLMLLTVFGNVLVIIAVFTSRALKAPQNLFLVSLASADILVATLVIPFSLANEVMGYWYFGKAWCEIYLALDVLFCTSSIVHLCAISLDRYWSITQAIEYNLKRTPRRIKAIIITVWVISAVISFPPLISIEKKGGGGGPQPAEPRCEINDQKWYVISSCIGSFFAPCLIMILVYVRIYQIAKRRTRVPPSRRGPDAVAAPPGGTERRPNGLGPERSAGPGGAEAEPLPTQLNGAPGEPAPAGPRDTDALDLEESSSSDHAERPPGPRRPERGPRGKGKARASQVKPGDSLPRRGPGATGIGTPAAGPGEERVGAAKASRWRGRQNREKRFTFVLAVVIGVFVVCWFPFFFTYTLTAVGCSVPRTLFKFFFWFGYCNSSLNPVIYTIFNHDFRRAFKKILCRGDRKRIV

[3] = molecular target: T2, Muscarinic acetylcholine receptor M2 (Homo sapiens, UniProt P08172)
T2 sequence (P08172 whole entry): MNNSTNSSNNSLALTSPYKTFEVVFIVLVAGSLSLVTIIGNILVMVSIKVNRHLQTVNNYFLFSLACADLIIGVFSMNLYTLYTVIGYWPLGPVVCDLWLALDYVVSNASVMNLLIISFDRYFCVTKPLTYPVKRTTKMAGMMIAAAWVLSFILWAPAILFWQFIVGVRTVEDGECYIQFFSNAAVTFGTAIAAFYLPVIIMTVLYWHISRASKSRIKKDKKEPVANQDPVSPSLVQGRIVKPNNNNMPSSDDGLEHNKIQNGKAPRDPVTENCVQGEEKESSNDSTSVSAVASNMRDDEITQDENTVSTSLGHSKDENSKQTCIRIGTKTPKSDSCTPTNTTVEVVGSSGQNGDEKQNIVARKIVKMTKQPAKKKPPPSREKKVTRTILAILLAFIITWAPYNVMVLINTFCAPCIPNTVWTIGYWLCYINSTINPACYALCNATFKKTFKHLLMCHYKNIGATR

Prothrombin = Prothrombin (Homo sapiens, UniProt P00734); assay type: functional
Histamine H3 receptor = Histamine H3 receptor (Homo sapiens, UniProt Q9Y5N1)
[4] = molecular target: 5-hydroxytryptamine receptor 2B (Homo sapiens, UniProt P41595); assay type: functional, cell-based
[5] = molecular target: cGMP-inhibited 3',5'-cyclic phosphodiesterase 3A (Homo sapiens, UniProt Q14432); assay type: functional
[6] = molecular target: 3',5'-cyclic-AMP phosphodiesterase 4A (Homo sapiens, UniProt P27815); assay type: functional
[7] = molecular target: Sodium-dependent dopamine transporter (Homo sapiens, UniProt Q01959)
Thromboxane A2 receptor [8] = molecular target: T3, Thromboxane A2 receptor (Homo sapiens, UniProt P21731); assay type: functional, cell-based
T3 sequence (P21731 whole entry): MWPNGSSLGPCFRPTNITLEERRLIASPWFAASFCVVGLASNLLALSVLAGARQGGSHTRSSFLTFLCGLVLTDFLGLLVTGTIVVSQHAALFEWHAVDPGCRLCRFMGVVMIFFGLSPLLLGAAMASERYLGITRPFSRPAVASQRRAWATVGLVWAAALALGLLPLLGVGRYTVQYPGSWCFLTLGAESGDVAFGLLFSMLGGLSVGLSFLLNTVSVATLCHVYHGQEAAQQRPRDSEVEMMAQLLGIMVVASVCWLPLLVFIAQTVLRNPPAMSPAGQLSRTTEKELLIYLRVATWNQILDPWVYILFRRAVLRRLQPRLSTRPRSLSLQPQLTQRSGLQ

Thromboxane A2 receptor [9] = molecular target: T3, Thromboxane A2 receptor; assay type: functional, cell-based; remark: listed apart in the source
Further: assay procedure not described here.

Chain of Voltage-gated inwardly rectifying potassium channel KCNH2 (Q12809 whole entry): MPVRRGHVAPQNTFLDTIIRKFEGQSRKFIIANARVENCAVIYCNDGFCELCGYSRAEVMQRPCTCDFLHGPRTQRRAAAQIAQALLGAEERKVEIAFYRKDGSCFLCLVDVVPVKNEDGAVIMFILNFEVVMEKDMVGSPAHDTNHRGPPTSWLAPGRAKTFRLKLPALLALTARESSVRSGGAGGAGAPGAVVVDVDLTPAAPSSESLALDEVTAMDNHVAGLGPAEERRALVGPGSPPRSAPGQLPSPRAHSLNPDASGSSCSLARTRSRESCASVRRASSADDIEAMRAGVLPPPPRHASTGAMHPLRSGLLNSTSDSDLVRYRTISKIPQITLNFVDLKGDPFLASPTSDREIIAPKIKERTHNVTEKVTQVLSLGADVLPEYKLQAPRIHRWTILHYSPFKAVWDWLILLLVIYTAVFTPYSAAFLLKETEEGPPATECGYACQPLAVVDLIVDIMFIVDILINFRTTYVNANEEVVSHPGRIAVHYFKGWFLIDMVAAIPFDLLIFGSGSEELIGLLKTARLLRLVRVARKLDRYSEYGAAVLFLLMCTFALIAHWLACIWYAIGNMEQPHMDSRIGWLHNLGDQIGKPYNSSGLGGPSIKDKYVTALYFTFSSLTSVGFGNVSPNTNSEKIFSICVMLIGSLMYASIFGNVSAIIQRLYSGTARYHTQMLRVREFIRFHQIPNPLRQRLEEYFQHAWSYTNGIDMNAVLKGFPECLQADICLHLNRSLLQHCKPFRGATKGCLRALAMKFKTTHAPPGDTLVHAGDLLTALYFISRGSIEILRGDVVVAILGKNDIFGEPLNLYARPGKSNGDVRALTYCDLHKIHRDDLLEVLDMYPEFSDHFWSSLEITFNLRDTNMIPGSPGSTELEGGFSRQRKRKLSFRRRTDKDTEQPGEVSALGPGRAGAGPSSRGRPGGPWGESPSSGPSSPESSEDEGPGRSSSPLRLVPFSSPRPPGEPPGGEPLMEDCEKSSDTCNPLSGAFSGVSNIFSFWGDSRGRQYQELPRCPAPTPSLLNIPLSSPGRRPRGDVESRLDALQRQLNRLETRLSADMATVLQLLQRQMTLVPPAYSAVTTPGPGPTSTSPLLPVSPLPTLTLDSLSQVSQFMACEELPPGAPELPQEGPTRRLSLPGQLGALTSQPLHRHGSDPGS
Chain of 3',5'-cyclic-AMP phosphodiesterase 4A (P27815 whole entry): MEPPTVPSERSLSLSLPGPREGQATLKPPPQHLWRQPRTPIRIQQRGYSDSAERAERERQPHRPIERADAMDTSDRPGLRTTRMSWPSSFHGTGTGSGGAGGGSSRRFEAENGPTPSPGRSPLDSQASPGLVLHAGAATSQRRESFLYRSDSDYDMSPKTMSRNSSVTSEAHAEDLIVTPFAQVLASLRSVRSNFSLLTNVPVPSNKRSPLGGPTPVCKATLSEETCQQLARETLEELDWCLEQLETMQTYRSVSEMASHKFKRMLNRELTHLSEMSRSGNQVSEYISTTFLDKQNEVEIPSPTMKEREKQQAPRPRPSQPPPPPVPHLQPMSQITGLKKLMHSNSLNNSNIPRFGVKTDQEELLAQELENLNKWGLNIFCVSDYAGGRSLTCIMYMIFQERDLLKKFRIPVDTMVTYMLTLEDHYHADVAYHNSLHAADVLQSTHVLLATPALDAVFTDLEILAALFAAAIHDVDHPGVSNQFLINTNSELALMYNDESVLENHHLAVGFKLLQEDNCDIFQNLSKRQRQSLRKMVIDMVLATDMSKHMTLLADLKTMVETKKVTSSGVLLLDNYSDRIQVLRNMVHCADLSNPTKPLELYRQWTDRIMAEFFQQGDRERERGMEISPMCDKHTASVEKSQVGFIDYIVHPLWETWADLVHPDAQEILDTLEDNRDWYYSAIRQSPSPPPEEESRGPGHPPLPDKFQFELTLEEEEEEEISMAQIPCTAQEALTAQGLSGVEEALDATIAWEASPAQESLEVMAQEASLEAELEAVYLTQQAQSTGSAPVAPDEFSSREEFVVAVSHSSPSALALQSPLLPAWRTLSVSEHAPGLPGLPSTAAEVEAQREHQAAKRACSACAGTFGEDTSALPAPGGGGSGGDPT
Chain of Sodium-dependent dopamine transporter (Q01959 whole entry): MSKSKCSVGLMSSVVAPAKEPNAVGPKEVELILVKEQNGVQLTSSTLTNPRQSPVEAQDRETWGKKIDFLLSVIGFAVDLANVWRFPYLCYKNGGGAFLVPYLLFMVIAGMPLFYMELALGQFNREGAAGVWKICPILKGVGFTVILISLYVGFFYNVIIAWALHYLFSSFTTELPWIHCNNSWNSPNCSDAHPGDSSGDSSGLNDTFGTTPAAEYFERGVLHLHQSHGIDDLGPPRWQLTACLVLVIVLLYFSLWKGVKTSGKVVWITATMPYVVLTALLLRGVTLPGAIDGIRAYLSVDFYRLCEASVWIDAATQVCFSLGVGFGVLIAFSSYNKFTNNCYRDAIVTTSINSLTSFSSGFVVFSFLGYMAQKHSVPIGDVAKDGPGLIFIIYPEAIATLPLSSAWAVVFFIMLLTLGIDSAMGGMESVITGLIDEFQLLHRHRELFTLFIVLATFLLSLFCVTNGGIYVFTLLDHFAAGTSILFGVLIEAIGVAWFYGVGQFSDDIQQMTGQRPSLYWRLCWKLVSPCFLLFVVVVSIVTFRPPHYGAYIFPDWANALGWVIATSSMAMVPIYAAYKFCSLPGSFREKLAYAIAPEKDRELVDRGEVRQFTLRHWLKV
Chain of 5-hydroxytryptamine receptor 2B (P41595 whole entry): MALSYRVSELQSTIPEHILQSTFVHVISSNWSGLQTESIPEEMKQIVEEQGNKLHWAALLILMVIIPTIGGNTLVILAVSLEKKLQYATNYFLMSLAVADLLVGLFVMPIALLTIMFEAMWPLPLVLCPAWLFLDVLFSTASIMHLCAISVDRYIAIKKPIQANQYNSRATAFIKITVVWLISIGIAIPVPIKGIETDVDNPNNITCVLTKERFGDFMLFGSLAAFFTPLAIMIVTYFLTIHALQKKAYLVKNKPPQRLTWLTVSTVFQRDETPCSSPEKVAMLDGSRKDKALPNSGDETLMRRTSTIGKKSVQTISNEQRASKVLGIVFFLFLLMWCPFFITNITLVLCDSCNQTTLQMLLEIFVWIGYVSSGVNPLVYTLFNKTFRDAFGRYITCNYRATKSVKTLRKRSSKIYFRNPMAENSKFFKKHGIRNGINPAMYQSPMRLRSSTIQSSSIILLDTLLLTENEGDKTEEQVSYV
Chain of Histamine H3 receptor (Q9Y5N1 whole entry): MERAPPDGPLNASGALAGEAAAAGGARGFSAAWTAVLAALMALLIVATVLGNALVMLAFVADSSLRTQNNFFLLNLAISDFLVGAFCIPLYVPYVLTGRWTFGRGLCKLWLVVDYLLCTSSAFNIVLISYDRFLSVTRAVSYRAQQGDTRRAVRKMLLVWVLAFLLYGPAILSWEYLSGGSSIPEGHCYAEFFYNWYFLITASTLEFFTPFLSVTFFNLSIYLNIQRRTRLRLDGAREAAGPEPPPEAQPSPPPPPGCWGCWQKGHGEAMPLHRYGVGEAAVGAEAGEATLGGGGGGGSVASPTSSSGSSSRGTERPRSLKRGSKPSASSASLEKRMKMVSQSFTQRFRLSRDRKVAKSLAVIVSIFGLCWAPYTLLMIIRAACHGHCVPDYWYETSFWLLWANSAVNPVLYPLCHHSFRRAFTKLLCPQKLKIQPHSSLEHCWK
Chain of cGMP-inhibited 3',5'-cyclic phosphodiesterase 3A (Q14432 whole entry): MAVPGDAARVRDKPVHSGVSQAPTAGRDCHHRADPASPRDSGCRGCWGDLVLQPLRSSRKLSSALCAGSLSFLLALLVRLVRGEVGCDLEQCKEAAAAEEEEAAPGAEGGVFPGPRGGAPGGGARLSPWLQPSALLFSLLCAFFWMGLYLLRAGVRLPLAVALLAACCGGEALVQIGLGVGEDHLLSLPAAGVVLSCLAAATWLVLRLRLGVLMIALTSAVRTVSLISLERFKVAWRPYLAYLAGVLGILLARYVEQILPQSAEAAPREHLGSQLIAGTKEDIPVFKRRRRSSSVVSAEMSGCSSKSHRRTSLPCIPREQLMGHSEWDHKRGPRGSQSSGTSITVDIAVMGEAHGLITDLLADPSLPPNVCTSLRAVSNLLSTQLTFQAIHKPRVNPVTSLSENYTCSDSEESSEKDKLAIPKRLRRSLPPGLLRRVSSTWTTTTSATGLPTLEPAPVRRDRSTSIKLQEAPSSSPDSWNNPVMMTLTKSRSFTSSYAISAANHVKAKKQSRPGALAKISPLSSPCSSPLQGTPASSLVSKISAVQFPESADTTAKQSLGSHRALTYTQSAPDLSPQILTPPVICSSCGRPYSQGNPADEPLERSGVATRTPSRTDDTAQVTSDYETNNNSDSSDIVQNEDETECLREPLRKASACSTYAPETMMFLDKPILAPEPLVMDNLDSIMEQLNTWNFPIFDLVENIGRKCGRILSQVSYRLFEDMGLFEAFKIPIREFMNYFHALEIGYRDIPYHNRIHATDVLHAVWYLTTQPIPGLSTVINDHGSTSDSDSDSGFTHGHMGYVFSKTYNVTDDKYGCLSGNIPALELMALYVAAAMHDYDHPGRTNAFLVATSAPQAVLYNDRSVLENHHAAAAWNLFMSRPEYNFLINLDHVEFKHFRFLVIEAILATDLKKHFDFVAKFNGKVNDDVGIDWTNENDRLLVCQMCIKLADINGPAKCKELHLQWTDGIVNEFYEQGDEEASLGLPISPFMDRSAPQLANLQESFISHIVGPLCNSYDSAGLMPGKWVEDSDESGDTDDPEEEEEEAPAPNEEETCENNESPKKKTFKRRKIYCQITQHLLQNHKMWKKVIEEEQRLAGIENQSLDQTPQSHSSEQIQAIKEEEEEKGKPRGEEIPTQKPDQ

Molecule `CNCCc1ccc(OC(=O)C(C)C)c(OC(=O)C(C)C)c1` [IBOPAMINE] has an AC50 [1] of over 30 µM.
`CCOC(=O)C1=C(C)NC(C)=C(C(=O)OCC)C1c1ccccc1/C=C/C(=O)OC(C)(C)C` [LACIDIPINE] was tested, and the AC50 [1] was 17.8 µM.
In the case of `CCC[C@@H]1C[C@@H](C(=O)N[C@@H]([C@H]2O[C@H](SC)[C@H](O)[C@@H](O)[C@H]2O)[C@@H](C)O)N(C)C1` [LINCOMYCIN], the AC50 [1] is reported as over 30 µM.
For `COC(=O)C1=C(C)NC(C)=C(C(=O)OCCN2CCN(C(c3ccccc3)c3ccccc3)CC2)C1c1cccc([N+](=O)[O-])c1` (centres undefined) [MANIDIPINE 6300], the AC50 [1] was 0.82 µM.
In the case of `C=C1c2cccc(O)c2C(=O)C2=C(O)[C@]3(O)C(=O)C(C(N)=O)=C(O)[C@@H](N(C)C)[C@@H]3[C@@H](O)[C@H]12` [METHACYCLINE], the AC50 [1] is reported as over 30 µM.
`CN(Cc1cnc2nc(N)nc(N)c2n1)c1ccc(C(=O)N[C@@H](CCC(=O)O)C(=O)O)cc1` [METHOTREXATE] gave an AC50 [1] of over 30 µM.
Work on `Cc1ccccc1N1C(=O)c2cc(S(N)(=O)=O)c(Cl)cc2NC1C` (centres undefined) [METOLAZONE] yielded an AC50 [1] of over 30 µM.
`O=C(O)c1cccnc1Nc1cccc(C(F)(F)F)c1` [NIFLUMIC ACID] showed an AC50 [1] of over 30 µM.
Work on `O=C1c2cccc3c2[C@H](CCC3)CN1[C@@H]1CN2CCC1CC2` [PALONOSETRON] yielded an AC50 [1] of 0.89 µM.
`OC[C@H]1O[C@@H](n2cnc3c2NC=NC[C@H]3O)C[C@@H]1O` [PENTOSTATIN] gave an AC50 [1] of over 30 µM.
`NNCCc1ccccc1` [PHENELZINE] gave an AC50 (Acetylcholinesterase) of over 30 µM, an AC50 [2] of 25.4 µM and an AC50 [3] of over 30 µM. It also gave an AC50 (Prothrombin) of over 30 µM, an AC50 (Histamine H3 receptor) of over 30 µM and an AC50 [4] of over 30 µM. It also gave an AC50 [1] of over 30 µM, an AC50 [5] of over 30 µM and an AC50 [6] of over 30 µM. The AC50 [7] was over 30 µM, the AC50 (Thromboxane A2 receptor [8]) was over 30 µM and the AC50 (Thromboxane A2 receptor [9]) was over 30 µM.
`O=C1c2ccccc2C(=O)C1c1ccccc1` [PHENINDIONE] showed an AC50 [1] of over 30 µM.
In the case of `CN[C@@H](C)[C@@H](O)c1ccccc1` [PSEUDOEPHEDRINE], the AC50 [1] is reported as over 30 µM.
Work on `CCCN1CC(NS(=O)(=O)N(CC)CC)CC2Cc3c(O)cccc3CC21` (centres undefined) [QUINAGOLIDE] yielded an AC50 [1] of 6.5 µM.
`C[C@]12CCC(=O)C[C@@H]1CC[C@@H]1[C@@H]2CC[C@]2(C)[C@@H](O)CC[C@@H]12` [STANOLONE] was tested, and the AC50 [1] was over 30 µM.
In the case of `O=C1OC(OC(=O)c2cccnc2Nc2cccc(C(F)(F)F)c2)c2ccccc21` (centres undefined) [TALNIFLUMATE], the AC50 [1] is reported as over 30 µM.
Molecule `C[C@]12C=CC(=O)C=C1CC[C@@H]1[C@@H]2CC[C@]2(C)OC(=O)CC[C@@H]12` [TESTOLACTONE] has an AC50 [1] of over 30 µM.
Molecule `CCOC(=O)c1c(CSc2ccccc2)n(C)c2cc(Br)c(O)c(CN(C)C)c12` [UMIFENOVIR] has an AC50 [1] of 0.61 µM.

— ChEMBL document CHEMBL5291721, “A preclinical secondary pharmacology resource illuminates target-adverse drug reaction associations of marketed drugs” (Nat Commun, 2023)
